Laboratory results: publication PMC3025571 (Nucleic Acids Research, 2010)
Where two headings read alike, the source gives them in different places. Blank lines part the entries; values can stand above or below the compound they belong to.

Molecular target: human FEN1 (Homo sapiens, UniProt P39748)
Test: Kinetic fluorogenic
Assay type: biochemical

Chain of human FEN1 (P39748 whole entry): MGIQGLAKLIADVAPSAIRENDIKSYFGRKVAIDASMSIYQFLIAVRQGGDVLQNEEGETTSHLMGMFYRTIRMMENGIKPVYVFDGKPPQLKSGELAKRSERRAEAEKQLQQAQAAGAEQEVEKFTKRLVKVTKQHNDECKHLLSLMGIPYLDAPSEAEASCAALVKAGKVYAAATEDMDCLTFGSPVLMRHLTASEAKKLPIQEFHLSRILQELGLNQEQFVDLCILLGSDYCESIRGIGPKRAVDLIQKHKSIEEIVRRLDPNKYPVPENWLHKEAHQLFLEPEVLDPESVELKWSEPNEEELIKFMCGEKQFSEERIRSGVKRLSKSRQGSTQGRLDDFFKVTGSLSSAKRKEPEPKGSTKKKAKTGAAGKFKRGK

SMILES: O=C(O)c1cc[c]([Sb](=[O])([OH])[OH])cc1[N+](=O)[O-] [NSC-13755]
- IC50 (read-out: average IC50, average of the fluorogenic and AlphaScreen assays): 0.93 µM

- inhibition of FEN1 (concentrations up to 0.67%, data not shown, assay format not specified): not inhibit
SMILES: C[S+](C)[O-] [DMSO, Dimethyl sulfoxide]

- IC50 (average IC50, average of the fluorogenic and AlphaScreen assays): 0.59 µM
SMILES: O=C(O)C1=CC(=C(c2ccc(O)c(C(=O)O)c2)c2ccc(O)c(C(=O)O)c2)C=CC1=O [ATA, aurintricarboxylic acid]
